Laboratory results reported in PubChem BioAssay (NCI).
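Interpolation was linear, between the two tested concentrations surrounding the appropriate level; five concentrations were tested over 48 hours in 96-well plates. The concentration for 50% growth inhibition is given as GI50. TGI: total growth inhibition.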

These compounds were tested on HCC-2998 colon (assay: DTP human tumour cell line panel, 48 h).

SMILES | GI50 [µM] | TGI [µM]
COCCOc1ccc(-c2nc3ccc(-c4nc5ccc(N6CCN(C)CC6)cc5[nH]4)cc3[nH]2)cc1 | 1.78 | 3.77
C/C(=N/Nc1ccc([N+](=O)[O-])cc1[N+](=O)[O-])C(CC(C(=O)NCc1ccccc1)/C(C)=N\Nc1ccc([N+](=O)[O-])cc1[N+](=O)[O-])C(=O)NCc1ccccc1 (stereo not given) |  | 33.9
N[C@@H]1CCCC[C@@H]1N.O=P([O-])([O-])CN(CCN(CP(=O)([O-])[O-])CP(=O)([O-])[O-])CP(=O)([O-])[O-].[Pt+2] | > 25 | > 25
COc1ccc(OC)c(N2CC(N)C2=O)c1 (stereo not given) |  | > 100
O=C(/C=C/c1ccc([N+](=O)[O-])cc1)c1ccc(NCc2nc3ccccc3[nH]2)cc1 |  | 6.38
Cc1cccc(C)c1NC(=O)CCCC(=O)C1/C(=N/NC(=O)CC#N)CCC/C1=N\NC(=O)CC#N (stereo not given) |  | > 100
Cc1ccc(-n2c3nc(=O)[nH]c(=O)c-3cc3cc([N+](=O)[O-])ccc32)cc1 | 14.6 | 28.6
COC(=O)C(CCCN1C(=O)c2ccccc2C1=O)C(=O)OC |  | > 100
COc1nc(NC2OC(COC(C)=O)C(OC(C)=O)C(OC(C)=O)C2OC(C)=O)c2c(OC(C)=O)cc(=O)oc2n1 (stereo not given) |  | > 100
CC(C)(C)c1cc2c(O)c3cccc4c(=O)c5cccc6c5-c(c34)c2c(c1)c6=O |  | 0.0657
Nc1cc(NN=C(c2ccc(O)cc2)c2ccc(O)cc2)c([N+](=O)[O-])cc1[N+](=O)[O-] | 1.57 | 3.51
O=C1C=CC(=O)c2nc3c(cc21)CCC3 |  | > 100
O=S(=O)(N/N=C/c1cccc(/C=N/NS(=O)(=O)c2ccccc2)c1)c1ccccc1 |  | > 100
CCCCN(CCCC)C(=O)C(=O)C(C(=O)c1ccc(OC)cc1)c1ccc(OC)cc1 (stereo not given) |  | > 100
C=C(C)CCOC(c1ccccc1)(c1ccccc1)c1ccccc1 |  | > 100
COc1ccc(C)cc1-c1cc(Sc2ccccc2)c(-c2cc(C)ccc2OC)o1 |  | > 31.6
Cn1ccc2c3c(Oc4ccc(NC(N)=O)cc4)ccnc3ccc21 | > 100 | > 100
CC(=O)O/N=C(/C)c1ccccc1O |  | > 100
CC(=O)OCCOCNC(=S)N/N=C(\C)c1cnccn1 |  | > 100
O=C(Nc1ccccc1-c1nn(C(=S)Nc2ccccc2)c(=S)n(C(=S)Nc2ccccc2)c1=O)C(F)(F)F |  | > 72.5
O=c1c(-c2ccccc2)c2oc(c1-c1ccccc1)CSCc1cccc(c1)CSC2 |  | > 100

The compounds below were run on K-562 leukemia (assay: DTP human tumour cell line panel, 48 h).

SMILES | TGI [µM] | GI50 [µM]
COC(=O)CC(c1ccccc1)C1(c2ccccc2)SCCS1 (stereo not given) | > 290 | 
O=C(/C(=C/c1ccc([N+](=O)[O-])cc1)SCc1ccccc1)c1ccc(Cl)cc1 | > 100 | 2.65
CCOC(=O)C1=C(C(=O)OCC)C2c3ccccc3C=CN2C(C(=O)OCC)=C(SC)S1 (stereo not given) | > 100 | 
CC(=O)NNc1nc(C)c(C(=O)/C=C/c2ccc(NC(C)=O)cc2)s1 | > 100 | 
CCCCCC[C@@H]1CCC2C(CO)[C@@H](O)CC[C@@H]2C1 (stereo not given in full) | > 100 | 
O=C(O)c1ccc2c(c1C(=O)O)C(=O)OC2(c1ccc(O)cc1)c1ccc(O)cc1 | > 100 | 
NC(=O)c1ccccc1NC(=O)C(=O)C(C(=O)c1ccc(Cl)c(Cl)c1)C1OC(=O)c2ccccc21 (stereo not given) | > 100 | 
N#Cc1c[nH]n2c(N=Nc3ccc(Cl)cc3)c(O)nc12 | > 100 | 26.4
O=S(=O)(c1ccccc1)N1CCN(S(=O)(=O)c2ccccc2)c2ccccc21 | > 100 | 
S=c1sc2c(n1-c1ccccc1)NC=NC2S (stereo not given) | > 100 | 
CCOC(=O)C1=C(C)N(c2ccc(F)cc2F)[C@]2(C#N)C(O)=C(Cl)C(Cl)=C(O)[C@]12C#N | > 100 | 88
Cc1csc(-c2nnc(Nc3ccc(Oc4ncccc4-c4ccnc(N)n4)cc3)c3ccccc23)c1 | > 100 | 3.15
Cc1ccc(/C=C/C(=O)CCN(C)C)cc1 | > 100 | 
COc1cc(C2CC(C)(O)Oc3cc4c(cc32)OCO4)cc(OC)c1OC (stereo not given) | > 100 | 
Cc1ccc(Oc2ccc(C)cc2N)cc1 | > 100 | 
c1ccc(NCn2cnc3ccccc32)cc1 | > 100 | 
CC1SC(c2ccc(F)cc2)N(NC(=O)C(O)c2ccccc2)C1=O (stereo not given) | > 100 | > 100
Cc1cc2c(C)[nH]nc2c(C(=O)O)c1C | > 100 | 
N#C/C(=C\c1cccc(Cl)c1Cl)c1ccccc1 | > 100 | 
